Reference: paper PMC10258805, “Nonpeptidic Oxazole-Based Prolyl Oligopeptidase Ligands with Disease-Modifying Effects on α-Synuclein Mouse Models of Parkinson’s Disease” (Journal of Medicinal Chemistry, 2023)

Assays:
[1] = tested on: pPP2Ac and PP2Ac in HEK-293 cells; test: PP2A marker assay (Western blot); assay type: cell-based, human; conditions: HEK-293, 10 μM, 4 h
LC3BII in HEK-293 cells = test: Autophagy marker LC3BII assay (Western blot); assay type: cell-based, human; conditions: HEK-293, 10 μM
[2] = tested on: pPP2Ac and PP2Ac in mouse brain; test: PP2A markers in mouse brain (Western blot); assay type: in vivo; conditions: 10 mg/kg i.p., 45 min after injection
[3] = tested on: AAV2-CBA-αSyn-injected mice; test: Cylinder test in AAV-αSyn PD mouse model; conditions: 10 mg/kg/day minipump, after 2 weeks of treatment (6-week time point), vs vehicle-treated AAV-αSyn mice
[4] = tested on: oligomeric αSyn in AAV-αSyn-injected mice; test: Oligomer-specific αSyn immunoreactivity (OD) in AAV-αSyn PD mouse model; conditions: 10 mg/kg/day minipump, 4 weeks

Structure (SMILES): N#C[C@@H]1CCCN1C(=O)[C@@H]1CCCN1C(=O)CCCc1ccccc1 [KYP-2047, reference compound]
- total PP2Ac levels (in words) [1]: elevated total PP2Ac levels
- LC3BII levels (in words) (LC3BII in HEK-293 cells; 4 h): significant increase in LC3BII levels
- LC3BII levels (in words) (LC3BII in HEK-293 cells; 24 h): significantly elevated LC3BII levels
- inactive pPP2Ac levels in mouse brain (in words) [2]: decreased inactive pPP2Ac levels, but this was not significant
- levels of PP2Ac in mouse brain (in words) [2]: significantly increased the levels of PP2Ac
- use of the ipsilateral forepaw in the cylinder test (in words) [3]: significantly decreased their use of the ipsilateral forepaw
- OD of oligomeric αSyn in the SNpc (in words) ([4]; vs vehicle-treated group): did not significantly reduce
- OD of oligomer-specific αSyn in the STR (in words) ([4]; vs vehicle-treated mice): decreased the OD of oligomer-specific αSyn
